In the experiment the target is LFA-1 binding to ICAM-1 (Homo sapiens, UniProt P05107+P20701). Kind of experiment: Inhibition of LFA-1 binding to ICAM-1 (LFA-1/Biotin-sICAM-1 AlphaScreen molecular assay). To be noted: highest compound concentration 1 μM in 1% DMSO, 37° C., 90 minutes. The text has this:
Assay to Determine Inhibition of LFA-1 Binding to ICAM-1
This assay protocol is designed to study the direct antagonism, by a test compound, of the interaction of ICAM-1 with the Leukointegrin CD18/CD11a (LFA-1).
The LFA-1/Biotin-sICAM-1 molecular assay measures the ability of test compounds to inhibit binding of LFA-1 to Biotinylated-sICAM using AlphaScreen technology (Ref: Wilson, J, Rossi, C P, Carboni, S, Fremaux, C, Perrin, D, Soto, C, Kosco-Vilbois, M, and Scheer, A: A Homogeneous 384-Well High-Throughput Binding Assay for a TNF Receptor Using Alphascreen Technology. J Biomol Screen 2003; 8:522-532) that uses TS2/4(anti-LFA-1)-custom conjugated AlphaLisa acceptor beads and streptavidin-coated donor beads from PerkinElmer. The assay was performed in white OptiPlates-384 in a volume of 60 μL using assay buffer (Dulbecco's PBS containing calcium and magnesium, 2 mM MgCl2, 0.1 mM PMSF, 0.1% BSA, pH 7.1). To each well, Biotin-sICAM was added followed by purified LFA-1 (in buffer of 50 mM triethylamine, 150 mM NaCl, 1% beta octylglucoside, 2 mM MgCl2 neutralized to pH with 1M Tris-HCl, pH 7.5). For compound testing, compound was added in 5 uL to the above in 25 uL. LFA-1 and Biotin-sICAM-1 were used at concentrations that would yield a signal to background ratio of 8-10. The highest concentration of compound was 1 μM in 1% DMSO. Positive controls were wells without compound containing LFA-1, while blanks were wells without both compound and LFA-1. Plates were mixed and incubated at 37° C. for 90 minutes. This was followed by addition of 15 μL/well TS2/4-congugated acceptor beads diluted in PBS containing 0.1% BSA for a final concentration of 10 μg/mL. The plates were mixed and incubated in the dark for 30 minutes at room temperature followed by addition of 15 μL/well streptavidin-coated donor beads diluted in PBS containing 0.1% BSA at a final concentration of 15 μg/mL. The plates were mixed and incubated in the dark for 60 minutes at room temperature and then read on an EnVision Multilabel Reader using AlphaScreen 384-well OptiPlate protocol.

Broadly, the IC50 is the concentration that gives 50% inhibition.

Sequence of LFA-1 binding to ICAM-1 (P20701 26-1170): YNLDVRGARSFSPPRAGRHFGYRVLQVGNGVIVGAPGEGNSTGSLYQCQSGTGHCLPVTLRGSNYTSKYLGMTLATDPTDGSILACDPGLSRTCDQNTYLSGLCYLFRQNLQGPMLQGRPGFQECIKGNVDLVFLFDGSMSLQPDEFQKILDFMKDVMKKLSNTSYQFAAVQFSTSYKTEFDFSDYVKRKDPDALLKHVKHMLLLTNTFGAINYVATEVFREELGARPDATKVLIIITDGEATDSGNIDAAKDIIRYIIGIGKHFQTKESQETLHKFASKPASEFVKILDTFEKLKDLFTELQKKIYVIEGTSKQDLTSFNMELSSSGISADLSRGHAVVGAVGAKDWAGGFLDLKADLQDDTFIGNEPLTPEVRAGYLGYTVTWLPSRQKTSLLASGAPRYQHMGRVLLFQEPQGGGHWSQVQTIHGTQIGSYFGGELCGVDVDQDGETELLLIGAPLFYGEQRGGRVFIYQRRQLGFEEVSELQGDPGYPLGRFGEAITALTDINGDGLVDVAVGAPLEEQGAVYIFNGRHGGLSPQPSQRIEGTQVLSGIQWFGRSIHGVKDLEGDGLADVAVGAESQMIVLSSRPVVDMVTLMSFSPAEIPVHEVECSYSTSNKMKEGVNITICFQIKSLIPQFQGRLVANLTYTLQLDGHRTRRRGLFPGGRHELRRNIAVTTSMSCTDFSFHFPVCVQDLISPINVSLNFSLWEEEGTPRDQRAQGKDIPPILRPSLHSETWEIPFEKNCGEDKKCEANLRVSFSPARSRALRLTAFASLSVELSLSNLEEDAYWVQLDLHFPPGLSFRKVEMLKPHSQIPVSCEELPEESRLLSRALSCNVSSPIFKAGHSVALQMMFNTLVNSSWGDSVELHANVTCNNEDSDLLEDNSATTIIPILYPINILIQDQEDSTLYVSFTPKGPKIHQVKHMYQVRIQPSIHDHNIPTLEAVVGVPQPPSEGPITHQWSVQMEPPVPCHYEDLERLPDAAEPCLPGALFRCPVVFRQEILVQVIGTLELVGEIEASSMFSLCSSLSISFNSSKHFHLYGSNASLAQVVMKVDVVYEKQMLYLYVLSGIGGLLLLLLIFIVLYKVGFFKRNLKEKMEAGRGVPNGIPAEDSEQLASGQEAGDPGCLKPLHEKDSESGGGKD
Sequence of LFA-1 binding to ICAM-1 (P05107 23-769): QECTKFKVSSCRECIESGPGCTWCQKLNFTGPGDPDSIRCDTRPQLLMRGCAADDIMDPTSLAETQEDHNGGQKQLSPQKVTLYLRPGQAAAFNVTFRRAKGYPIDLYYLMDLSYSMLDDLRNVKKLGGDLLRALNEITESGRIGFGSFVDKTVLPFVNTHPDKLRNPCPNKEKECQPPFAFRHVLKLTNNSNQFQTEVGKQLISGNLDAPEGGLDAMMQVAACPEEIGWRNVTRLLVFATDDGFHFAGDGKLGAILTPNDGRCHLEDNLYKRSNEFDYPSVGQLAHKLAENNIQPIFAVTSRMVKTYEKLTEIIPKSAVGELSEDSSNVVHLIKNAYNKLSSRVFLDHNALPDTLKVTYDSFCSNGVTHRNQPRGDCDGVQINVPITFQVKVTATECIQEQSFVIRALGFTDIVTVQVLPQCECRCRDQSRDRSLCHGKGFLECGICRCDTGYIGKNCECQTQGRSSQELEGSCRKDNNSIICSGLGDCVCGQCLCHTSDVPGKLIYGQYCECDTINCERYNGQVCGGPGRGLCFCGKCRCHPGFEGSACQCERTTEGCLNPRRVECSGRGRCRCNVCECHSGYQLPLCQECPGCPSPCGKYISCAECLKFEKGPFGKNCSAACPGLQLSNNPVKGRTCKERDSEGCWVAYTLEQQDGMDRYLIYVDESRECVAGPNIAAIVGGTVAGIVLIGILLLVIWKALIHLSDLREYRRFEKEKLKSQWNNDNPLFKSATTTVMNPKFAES

Compound `CN(CCO)C(=O)c1cccc(C2(NC(=O)C3(NC(=O)c4cnc5n4[C@](C)(Cc4ccc(C#N)cc4)C(=O)N5c4cc(Cl)cc(Cl)c4)CC3)CC2)n1` [compound 20] returned an IC50 of 1 nM.
Compound `C[C@@]1(Cc2ccc(C#N)cc2)C(=O)N(c2cc(Cl)cc(Cl)c2)c2ncc(C(=O)NC3(C(=O)NC4(c5ccc(C(=O)NCCc6cccnc6)cn5)CC4)CC3)n21` [compound 84] came in with an IC50 of 0.53 nM.
Regarding `CN(CCO)C(=O)c1ccnc(C2(NC(=O)C3(NC(=O)c4cnc5n4[C@](C)(Cc4ccc(C#N)cc4)C(=O)N5c4cc(Cl)cc(Cl)c4)CC3)CC2)c1` [compound 34], the IC50 turned out to be 0.7 nM.
Take `C[C@@]1(Cc2ccc(C#N)cc2)C(=O)N(c2cc(Cl)cc(Cl)c2)c2ncc(C(=O)NC3(C(=O)NC4(c5ccc(C(=O)N6CCC6)cn5)CC4)CC3)n21` [compound 90]: the IC50 was found to be 0.29 nM.
Turning to `C[C@@]1(Cc2ccc(C#N)cc2)C(=O)N(c2cc(Cl)cc(Cl)c2)c2ncc(C(=O)NC3(C(=O)NC4(c5cccc(C(=O)N6CC[C@@H](O)C6)n5)CC4)CC3)n21` [compound 48], the IC50 is 2.4 nM.
In turn, `C[C@@]1(Cc2ccc(C#N)cc2)C(=O)N(c2cc(Cl)cc(Cl)c2)c2ncc(C(=O)NC3(C(=O)NC4(c5ccc(C(=O)NCc6cccnc6)cn5)CC4)CC3)n21` [compound 21] came in with an IC50 of 0.81 nM.
In turn, `C[C@@]1(Cc2ccc(C#N)cc2)C(=O)N(c2cc(Cl)cc(Cl)c2)c2ncc(C(=O)NC3(C(=O)NC4(c5ccc(C(N)=O)cn5)CC4)CC3)n21` [compound 148] returned an IC50 of 1.4 nM.
The figure for `C[C@@]1(Cc2ccc(C#N)cc2)C(=O)N(c2cc(Cl)cc(Cl)c2)c2ncc(C(=O)NC3(C(=O)NC4(c5ccc(C(=O)NCCc6ccccc6)cn5)CC4)CC3)n21` [compound 134] is 2.2 nM.
In turn, `C[C@H](NC(=O)c1cccc(C2(NC(=O)C3(NC(=O)c4cnc5n4[C@](C)(Cc4ccc(C#N)cc4)C(=O)N5c4cc(Cl)cc(Cl)c4)CC3)CC2)n1)c1ccccc1` [compound 165] came in with an IC50 of 0.3 nM.
With `C[C@@]1(Cc2ccc(C#N)cc2)C(=O)N(c2cc(Cl)cc(Cl)c2)c2ncc(C(=O)NC3(C(=O)NC4(c5cccc(C(=O)NCCN)n5)CC4)CC3)n21` [compound 40], the half-maximal inhibitory concentration (IC50) amounted to 1.3 nM.
Turning to `C[C@@]1(Cc2ccc(C#N)cc2)C(=O)N(c2cc(Cl)cc(Cl)c2)c2ncc(C(=O)NC3(C(=O)NC4(c5ccc(C(=O)NCC(N)=O)cn5)CC4)CC3)n21` [compound 14], the IC50 turned out to be 0.27 nM.
In turn, `C[C@@]1(Cc2ccc(C#N)cc2)C(=O)N(c2cc(Cl)cc(Cl)c2)c2ncc(C(=O)NC3(C(=O)NC4(c5ccc(C(=O)N6CCCC(C(N)=O)C6)cn5)CC4)CC3)n21` (stereo partly drawn) [compound 101] returned an IC50 of 0.42 nM.
In turn, `C[C@@]1(Cc2ccc(C#N)cc2)C(=O)N(c2cc(Cl)cc(Cl)c2)c2ncc(C(=O)NC3(C(=O)NC4(c5cc(C(=O)N6CCCC(C(N)=O)C6)ccn5)CC4)CC3)n21` (stereo partly drawn) [compound 43] returned an IC50 of 0.74 nM.
The figure for `C[C@H](O)CNC(=O)c1ccc(C2(NC(=O)C3(NC(=O)c4cnc5n4[C@](C)(Cc4ccc(C#N)cc4)C(=O)N5c4cc(Cl)cc(Cl)c4)CC3)CC2)nc1` [compound 99] is 0.52 nM.
`CC(=O)NC1CCN(C(=O)c2ccnc(C3(NC(=O)C4(NC(=O)c5cnc6n5[C@](C)(Cc5ccc(C#N)cc5)C(=O)N6c5cc(Cl)cc(Cl)c5)CC4)CC3)c2)C1` (stereo partly drawn) [compound 54] came in with an IC50 of 1.2 nM.
The compound `C[C@H](NC(=O)c1ccc(C2(NC(=O)C3(NC(=O)c4cnc5n4[C@](C)(Cc4ccc(C#N)cc4)C(=O)N5c4cc(Cl)cc(Cl)c4)CC3)CC2)nc1)c1ccccc1` [compound 33] showed an IC50 of 2.7 nM.
Take `CN1CCN(C(=O)c2ccc(C3(NC(=O)C4(NC(=O)c5cnc6n5[C@](C)(Cc5ccc(C#N)cc5)C(=O)N6c5cc(Cl)cc(Cl)c5)CC4)CC3)nc2)CC1` [compound 37]: the IC50 turned out to be 2.4 nM. The IC50 values of the last two compounds are within 1.5-fold of each other.
The figure for `C[C@@]1(Cc2ccc(C#N)cc2)C(=O)N(c2cc(Cl)cc(Cl)c2)c2ncc(C(=O)NC3(C(=O)NC4(c5ccc(C(=O)N6CCOCC6)cn5)CC4)CC3)n21` [compound 42] is 0.35 nM.
The compound `C[C@@]1(Cc2ccc(C#N)cc2)C(=O)N(c2cc(Cl)cc(Cl)c2)c2ncc(C(=O)NC3(C(=O)NC4(c5cccc(C(=O)N6CCCCC6CO)n5)CC4)CC3)n21` (stereo partly drawn) [compound 125] showed a half-inhibitory concentration (IC50) of 0.28 nM.
On to `C[C@@]1(Cc2ccc(C#N)cc2)C(=O)N(c2cc(Cl)cc(Cl)c2)c2ncc(C(=O)NC3(C(=O)NC4(c5cccc(C(=O)N6CCC[C@@H]6C(N)=O)n5)CC4)CC3)n21` [compound 67], for which the half-maximal inhibitory concentration (IC50) is 2.6 nM. Against the preceding compound, the IC50 is about 9.3-fold higher.
In turn, `CC(C)(NC(=O)c1ccnc(C2(NC(=O)C3(NC(=O)c4cnc5n4[C@](C)(Cc4ccc(C#N)cc4)C(=O)N5c4cc(Cl)cc(Cl)c4)CC3)CC2)c1)c1ccccc1` [compound 108] displayed an IC50 of 3 nM.
`CC(CO)NC(=O)c1ccnc(C2(NC(=O)C3(NC(=O)c4cnc5n4[C@](C)(Cc4ccc(C#N)cc4)C(=O)N5c4cc(Cl)cc(Cl)c4)CC3)CC2)c1` (stereo partly drawn) [compound 120]: the IC50 came to 0.75 nM.
On to `CCN(CC)C(=O)c1ccnc(C2(NC(=O)C3(NC(=O)c4cnc5n4[C@](C)(Cc4ccc(C#N)cc4)C(=O)N5c4cc(Cl)cc(Cl)c4)CC3)CC2)c1` [compound 138], for which the IC50 was 0.67 nM.
In turn, `C[C@@]1(Cc2ccc(C#N)cc2)C(=O)N(c2cc(Cl)cc(Cl)c2)c2ncc(C(=O)NC3(C(=O)NC4(c5ccc(C(=O)N6CC[C@H](O)C6)cn5)CC4)CC3)n21` [compound 130] gave an IC50 of 0.74 nM.
In turn, `C[C@@]1(Cc2ccc(C#N)cc2)C(=O)N(c2cc(Cl)cc(Cl)c2)c2ncc(C(=O)NC3(C(=O)NC4(c5ccc(C(=O)NC6CCC6)cn5)CC4)CC3)n21` [compound 71] showed an IC50 of 0.74 nM.
The compound `C[C@@]1(Cc2ccc(C#N)cc2)C(=O)N(c2cc(Cl)cc(Cl)c2)c2ncc(C(=O)NC3(C(=O)NC4(c5cccc(C(=O)NCCO)n5)CC4)CC3)n21` [compound 30] showed an IC50 of 0.91 nM. The IC50 values of the last two compounds are within 1.5-fold of each other.
Regarding `C[C@@H](CO)NC(=O)c1ccnc(C2(NC(=O)C3(NC(=O)c4cnc5n4[C@](C)(Cc4ccc(C#N)cc4)C(=O)N5c4cc(Cl)cc(Cl)c4)CC3)CC2)c1` [compound 17], the IC50 was 0.18 nM. Against the preceding compound, the IC50 is about 5.1-fold lower.
With `CC(=O)NC1CCN(C(=O)c2cccc(C3(NC(=O)C4(NC(=O)c5cnc6n5[C@](C)(Cc5ccc(C#N)cc5)C(=O)N6c5cc(Cl)cc(Cl)c5)CC4)CC3)n2)C1` (stereo partly drawn) [compound 15], the IC50 is 1.5 nM.
In the case of `CC(NC(=O)c1ccc(C2(NC(=O)C3(NC(=O)c4cnc5n4[C@](C)(Cc4ccc(C#N)cc4)C(=O)N5c4cc(Cl)cc(Cl)c4)CC3)CC2)nc1)c1ccccn1` (stereo partly drawn) [compound 155], the IC50 is 0.74 nM.
The figure for `C[C@@]1(Cc2ccc(C#N)cc2)C(=O)N(c2cc(Cl)cc(Cl)c2)c2ncc(C(=O)NC3(C(=O)NC4(c5ccc(C(=O)NC(CO)CO)cn5)CC4)CC3)n21` [compound 66] is 0.28 nM; for `C[C@@]1(Cc2ccc(C#N)cc2)C(=O)N(c2cc(Cl)cc(Cl)c2)c2ncc(C(=O)NC3(C(=O)NC4(c5cc(C(=O)NCc6ccccc6)ccn5)CC4)CC3)n21` [compound 24] it is 4.1 nM; for `C[C@@]1(Cc2ccc(C#N)cc2)C(=O)N(c2cc(Cl)cc(Cl)c2)c2ncc(C(=O)NC3(C(=O)NC4(c5ccc(C(=O)N6CCN(S(C)(=O)=O)CC6)cn5)CC4)CC3)n21` [compound 153] it is 1.5 nM.
The figure for `C[C@@]1(Cc2ccc(C#N)cc2)C(=O)N(c2cc(Cl)cc(Cl)c2)c2ncc(C(=O)NC3(C(=O)NC4(c5ccc(C(=O)NC6CC6)cn5)CC4)CC3)n21` [compound 126] is 2.6 nM; for `C[C@@]1(Cc2ccc(C#N)cc2)C(=O)N(c2cc(Cl)cc(Cl)c2)c2ncc(C(=O)NC3(C(=O)NC4(c5cc(C(=O)NCc6ccncc6)ccn5)CC4)CC3)n21` [compound 64] it is 0.34 nM.
The figure for `C[C@@]1(Cc2ccc(C#N)cc2)C(=O)N(c2cc(Cl)cc(Cl)c2)c2ncc(C(=O)NC3(C(=O)NC4(c5cc(C(=O)NC6CCC6)ccn5)CC4)CC3)n21` [compound 114] is 0.84 nM.
Regarding `C[C@H](CO)NC(=O)c1ccc(C2(NC(=O)C3(NC(=O)c4cnc5n4[C@](C)(Cc4ccc(C#N)cc4)C(=O)N5c4cc(Cl)cc(Cl)c4)CC3)CC2)nc1` [compound 141], the IC50 was 0.8 nM.
For `CN(CCO)C(=O)c1ccc(C2(NC(=O)C3(NC(=O)c4cnc5n4[C@](C)(Cc4ccc(C#N)cc4)C(=O)N5c4cc(Cl)cc(Cl)c4)CC3)CC2)nc1` [compound 154], the IC50 was found to be 1 nM.
In the case of `C[C@@]1(Cc2ccc(C#N)cc2)C(=O)N(c2cc(Cl)cc(Cl)c2)c2ncc(C(=O)NC3(C(=O)NC4(c5cc(C(=O)NCC6CC6)ccn5)CC4)CC3)n21` [compound 142], the IC50 is 1.3 nM.
Turning to `C[C@@]1(Cc2ccc(C#N)cc2)C(=O)N(c2cc(Cl)cc(Cl)c2)c2ncc(C(=O)NC3(C(=O)NC4(c5ccc(C(=O)N6CCNCC6)cn5)CC4)CC3)n21` [compound 56], the IC50 was 0.6 nM.

The record behind these values is patent US8481750B2 (Boehringer Ingelheim International GmbH, priority 2009, dated 2013).
